We go through 2 compounds from publication PMC7496286, “The Selectivity of Fosfosal for STAT5b over STAT5a is Mediated by Arg566 in the Linker Domain” (Chembiochem, 2020).

Residue numbers refer to the chain shown, from its start. “And” between values parts separate entries of the source, which are not always exact repeats. Equal values may be shown once.

One assay has as its target T1, STAT5b SH2 domain (Homo sapiens, UniProt P51692).
T1 construct: His; made in house
T1 sequence (P51692 1-787): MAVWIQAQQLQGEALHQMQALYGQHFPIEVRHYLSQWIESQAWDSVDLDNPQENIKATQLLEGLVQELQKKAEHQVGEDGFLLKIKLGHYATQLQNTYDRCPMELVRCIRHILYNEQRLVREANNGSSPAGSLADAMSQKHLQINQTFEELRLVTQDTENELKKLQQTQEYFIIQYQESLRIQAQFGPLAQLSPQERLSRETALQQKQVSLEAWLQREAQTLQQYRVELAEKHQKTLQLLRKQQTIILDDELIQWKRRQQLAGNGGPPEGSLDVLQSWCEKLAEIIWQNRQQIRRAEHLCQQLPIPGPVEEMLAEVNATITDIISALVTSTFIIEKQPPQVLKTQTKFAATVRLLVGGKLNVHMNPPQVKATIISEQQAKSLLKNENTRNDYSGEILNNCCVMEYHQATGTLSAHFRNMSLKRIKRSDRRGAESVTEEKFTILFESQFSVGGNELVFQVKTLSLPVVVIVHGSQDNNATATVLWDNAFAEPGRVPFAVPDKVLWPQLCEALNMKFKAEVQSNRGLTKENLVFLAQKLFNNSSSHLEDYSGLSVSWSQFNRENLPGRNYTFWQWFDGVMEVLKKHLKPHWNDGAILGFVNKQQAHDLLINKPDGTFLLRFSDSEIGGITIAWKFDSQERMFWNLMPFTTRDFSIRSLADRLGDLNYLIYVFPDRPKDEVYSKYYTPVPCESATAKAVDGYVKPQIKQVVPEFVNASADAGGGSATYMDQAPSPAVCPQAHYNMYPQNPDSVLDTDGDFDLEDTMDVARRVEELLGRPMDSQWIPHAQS
In words: Fluorescence polarization (FP)-based competitive binding assay, wild-type STAT5b. On the procedure: (§1) Fluorescence polarization assays
(§2) The ability of test compounds to displace 5-carboxyfluorescein-GY(PO3H2)LVLDKW (final concentration: 10 nM) from the SH2 domain of STAT5a/b proteins was analyzed. Proteins […]
(§3) was applied in dilution series comprising the following concentrations: 0.024 – 200 µM […]
(§4) and 0.146 – 600 µM (STAT5b Arg566Glu), respectively. The assays were performed in buffer containing 10 mM Tris, 50 mM NaCl, 1 mM DTT, 1 mM EDTA and 0.1% (v/v) NP-40. Fosfosal was dissolved in DMSO. STAT5a/b proteins and fosfosal were incubated at room temperature for 1 h before adding peptide. Samples were transferred to 384-well microtiter plates and fluorescence polarization was read after a further 1 h incubation time. All measurements were performed in triplicate (n=3), except for STAT5b (n=6) and STAT5a Trp566Arg (n=4). Percent binding was calculated based on a logarithmic curve fit using OriginPro 8G software. IC50 values were converted to Ki values using the published equation.[4] […]
[2] N. Elumalai, A. Berg, K. Natarajan, A. Scharow, T. Berg, Angew. Chem. Int. Ed. 2015, […]
[3] M. Gräber, W. Janczyk, B. Sperl, N. Elumalai, C. Kozany, F. Hausch, T. A. Holak, T.
(§5) [4] Z. Nikolovska-Coleska, R. Wang, X. Fang, H. Pan, Y. Tomita, P. Li, P. P. Roller, K.
(§6) Krajewski, N. G. Saito, J. A. Stuckey, S. Wang, Anal. Biochem. 2004, 332, 261-273.

Another assay addresses T2, STAT5b Arg566Ala (Homo sapiens, UniProt P51692, R566A).
T2 construct: His; made in house
T2 sequence (P51692 1-787 R566A): T1 sequence (P51692 1-787) with R566A
The assay is described as follows: FP-based competitive binding assay, STAT5b Arg566Ala. On the procedure: as §1, §2, §3, §4, §5, §6

In the case of `CC(C)C[C@H](NC(=O)[C@H](Cc1ccc(OP(=O)(O)O)cc1)NC(=O)CNC(=O)c1ccc2c(c1)C(=O)OC21c2ccc(O)cc2Oc2cc(O)ccc21)C(=O)N[C@H](C(=O)N[C@@H](CC(C)C)C(=O)N[C@@H](CC(=O)O)C(=O)N[C@@H](CCCCN)C(=O)N[C@@H](Cc1c[nH]c2ccccc12)C(=O)O)C(C)C` [5-carboxyfluorescein-GY(PO3H2)LVLDKW], the Kd was 82 nM and 95 nM at STAT5b SH2 domain (Kd, fluorescent tracer peptide binding to STAT5b); 567 nM on STAT5b Arg566Ala.
For `O=C(O)c1ccccc1OP(=O)(O)O` [fosfosal, O‐phosphorylated salicylic acid], the “selectivity for STAT5b over STAT5a” value on STAT5b SH2 domain (Ki STAT5a versus Ki STAT5b) is reported as “fivefold”. At STAT5b SH2 domain (wild-type STAT5b), this compound displayed an IC50 of 59500 ± 3600 nM. At STAT5b SH2 domain (wild-type STAT5b, Ki calculated from IC50 with published equation, n=6), the Ki is 29300 ± 1800 nM. Besides, the inhibition at 600 µM at STAT5b Arg566Ala (STAT5b Arg566Ala, 600 μM) was 22 ± 3%.
